Measured values reported in patent US20100004333A1, “COMPOSITIONS AND METHODS FOR TREATING CARDIOVASCULAR DISORDERS” (priority 2004, published 2010).

What was measured:
[1] = system: aortic rings from rabbits; assay: HOCl-induced endothelial dysfunction in aortic rings from rabbits fed supplemented diet; assay type: in vivo, New Zealand White rabbits; conditions: dietary 1% probucol, 0.2% DTBP or 0.02% BP, 4 weeks; for Relaxation to ACh of aortic rings after 400 μM HOCl: FIG. 6A; for Tissue cGMP of aortic rings after 400 μM HOCl and 1 μM ACh: FIG. 6B
Protocol: All other reagents were of the highest quality available. Buffers were routinely filtered, argon-flushed and stored at 4° C. prior to use. Solutions of HOCl were prepared freshly before use by diluting reagent HOCl (Aldrich) into phosphate buffer (250 mM, pH 7.0) and standardizing with ε235 nm˜100 M^−1cm^−1 (hypochlorous acid) and ε290 nm˜300 M^−1cm^−1 (hypochlorite), as described in Journal of Physical Chemistry 1966, 70:3798-3805. Animals: New Zealand White rabbits (2.5-3 kg) were obtained from a commercial farm (Wauchope, NSW Australia) and housed individually for the entire study period. […] Feed and water were provided ad libitum for a period of 4 weeks judged to be sufficient time for circulating drug levels to reach a maximum (data not shown). […] The local ethics committee approved the study. Vascular reactivity: Perfused rabbit aortas were harvested and vascular reactivity studies performed as described in Circulation 2003, 107:2031-2036. Briefly, within 2 h of isolation, ring segments ˜5 mm in length were mounted in a myobath system (World Precision Instruments, Sarasota, Fla.) containing 20 mL of Krebs solution aerated at 37° C. with 5% CO2(g), and the dilatory response of half maximally norepinephrine pre-constricted rings to incremental doses of ACh (10^−9-10^−5 mol/L) determined. Where indicated, reagent HOCl (final concentration 400 μM) was added to the Krebs solution and the rings incubated for 5 min prior to thorough washing, pre-constriction and assessment of vessel relaxation. In some studies rings were incubated with probucol or DTBP for 10 min, washed thoroughly and then exposed to HOCl prior to assessing endothelium-dependent relaxation. A maximum of three consecutive sequences of constriction/relaxation were performed for each ring. Preparation of Aortic Homogenates: Aortic Rings Used in the Vascular Function Studies were removed and immediately cut into small pieces, frozen in liquid nitrogen, and then pulverized and homogenized as described. An aliquot (50 μL) of homogenate was removed for protein determination (BCA assay, Sigma) and the remainder extracted into methanol/hexane (5:1, v/v), the resulting hexane fraction dried and the residue suspended in isopropanol for analysis of probucol and its oxidation products. For cGMP determinations, aortic segments were treated with vehicle (control) or HOCl (400 μM) before addition of 1 μM ACh in the presence of 200 μM 3-isobutyl-1-methylxanthine and measurement of cGMP in the homogenate using a kit (Cayman Chemical, Ann Arbor, Mich.). Probucol oxidation studies: Probucol is a highly lipophilic compound (partition coefficient between octanol and water=[…]) that readily distributes into lipoproteins. To mimic the biological situation, oxidation reactions were therefore performed with probucol (or DTBP) dissolved in hexane (2 mL) to which aliquots of HOCl were added to give the final concentrations indicated. The heterogeneous mixtures were shaken vigorously at 37° C. for 60 min, then placed on ice after adding 1 mL water, the hexane phase removed, dried under vacuum and resuspended in isopropanol (200 μL) for HPLC analyses (see below). The aqueous phase was analyzed for the content of sulfate anion (SO4^2−) by ion exchange chromatography (see below). Analytical analyses: Probucol, DTBP, BP and DPQ were analyzed by gradient reversed-phase HPLC and quantified by peak area comparison with authentic standards. Under the conditions used, BP, DTBP, probucol and DPQ eluted at 12.5, 19.2, 20.8 and 28.4 min, respectively. Other oxidation products resolved by this HPLC system were also quantified by peak area comparison, using analytically pure samples obtained from semi-preparative (LC-18, 20 mm×25 cm, 5 μm) fractionation of the reaction mixture. Isolated samples were dried under vacuum, re-dissolved to a known concentration and assessed for purity by analytical HPLC (LC-18, 4.6 mm×25 cm, 5 μm) in combination with mass spectrometry (see below). […]

apoE−/− mice = assay: Atherosclerosis in apoE−/− mice: probucol versus DTBP versus BP, 5 months; assay type: in vivo; conditions: for Atherosclerosis (lesion size) at the arch and descending aorta: 1% probucol, 0.02% BP; for Macrophages lesion area (Mac-3+): FIG. 12a, f; for Proliferating cells (PCNA+): FIG. 12g; for Aortic content of neutral lipids (cholesterylesters and triglycerides): FIG. 12d; for Plasma cholesterol: FIG. 12c
Source text: ApoE−/− mouse model. Four groups of male apoE−/− mice (8-10 weeks, Animal Resources Centre, Perth, Australia) were fed a high fat diet based on Harlan Teklad diet TD88137±1% (wt/wt) probucol (96% purity, a gift from AstraZeneca, Sweden), 0.02% DTBP, or 0.02% BP (Polysciences, Warrington, Pa.) for 5 months. Tissue harvesting and analyses were done as described in Examples 1 and 3, using 15 and 10 mice of each group for biochemical and histological analyses, respectively. Histology and immunohistochemistry. Aortic lesion assessment was carried out at four sites (sinus, arch, thoracic and abdominal aorta) as described in Example 1. Immediately adjacent sections were employed for immunohistochemistry, using Mac-3 (macrophages, dilution 1:200, DAKO), PCNA (cell proliferation, dilution 1:500, DAKO) and anti-rat HO-1 monoclonal antibody (dilution 1:50, Santa Cruz) with avidin-biotin-horseradish peroxidase for signal detection (Vectorstain Elite ABC Kit, Vector Laboratories). Apoptosis was assessed using the TUNEL assay kit (Roche) according to the manufacture's instructions. Digital images were taken for quantitative morphometric analysis. Mac-3^+ areas were determined using Adobe Photoshop V6.0 by tracing. Total cell profiles, TUNEL^+ and PCNA^+ cells were counted manually at high magnification (40× objective). A single operator using coded samples performed all analyses blinded. Heme oxygenase. Heme oxygenase activity was determined in microsomes prepared from homogenized aortic tissue and assessed by HPLC as described in Circulation 2004, 110: 1855-1860. Statistics. All data are expressed as mean±SEM. One-way ANOVA and the student-Newman-Keul's test were used to evaluate differences between groups, with P<0.05 considered significant.

heme oxygenase-1 (HO-1) = assay: Heme oxygenase-1 expression, mRNA and heme oxygenase activity in rabbit aorta after balloon injury; assay type: in vivo, rabbits; conditions: for Tissue levels of HO-1 mRNA / Heme oxygenase activity in aorta: 4 days after ABI; for Tissue levels of HO-1 mRNA: FIG. 16b; for Heme oxygenase activity in aorta: FIG. 16c; for HO-1 expression in the media of damaged aortas (immunohistochemistry): 4 days after balloon injury, FIG. 16a

Structure (SMILES)	Relaxation to ACh of aortic rings after 400 μM HOCl [1]	Tissue cGMP of aortic rings after 400 μM HOCl and 1 μM ACh [1]	Atherosclerosis (lesion size) at the arch and descending aorta (apoE−/− mice; 0.02% DTBP, 5 months, FIG. 12b)	Macrophages lesion area (Mac-3+) (apoE−/− mice; apoE−/− mice, 5 months)	Proliferating cells (PCNA+) (apoE−/− mice; apoE−/− mice, 5 months)	Aortic content of neutral lipids (cholesterylesters and triglycerides) (apoE−/− mice; apoE−/− mice, 5 months)	Tissue levels of HO-1 mRNA (heme oxygenase-1 (HO-1))	Heme oxygenase activity in aorta (heme oxygenase-1 (HO-1))	HO-1 expression in the media of damaged aortas (immunohistochemistry) (heme oxygenase-1 (HO-1))	Plasma cholesterol (apoE−/− mice; apoE−/− mice, 5 months)	Lesion size at the aortic root (apoE−/− mice; 0.02% DTBP, 5 months, FIG. 12b)	HDL-cholesterol (apoE−/− mice; apoE−/− mice, 0.02% DTBP, 5 months, FIG. 12h)	Anti-atherosclerotic activity relative to probucol (apoE−/− mice; judged from aortic drug concentration and lesion inhibition)
CC(C)(Sc1cc(C(C)(C)C)c(O)c(C(C)(C)C)c1)Sc1cc(C(C)(C)C)c(O)c(C(C)(C)C)c1 [probucol]	retained responsiveness to ACh	greater content of cGMP	significantly inhibited	significant decrease	significant decrease	decreased	significantly increased	significantly increased	induced HO-1 expression				
CC(C)(C)c1cc(-c2cc(C(C)(C)C)c(O)c(C(C)(C)C)c2)cc(C(C)(C)C)c1O [BP, 3,3′,5,5′-tetra-tert-butyl-4,4′-bisphenol]	responded to HOCl indistinguishably from control	ineffective	failed	failed to affect	failed to affect				but not BP, induced HO-1 expression	failed			
CC(C)(C)c1cc(SSc2cc(C(C)(C)C)c(O)c(C(C)(C)C)c2)cc(C(C)(C)C)c1O [DTBP, 4,4′-dithiobis(2,6-di-tert-butyl-phenol)]	preserved the vascular function of isolated rings to an extent comparable to that seen with probucol	increase in tissue cGMP	significantly inhibited	significant decrease	significant decrease	decreased	significantly increased	significantly increased	induced HO-1 expression	did not increase medium lesion size at the aortic root (FIG. 12b) or affect plasma cholesterol	did not increase	does not lower HDL-cholesterol	greater anti-atherosclerotic activity than probucol
